Measurements taken from patent publication US20210395313A1, “PEPTIDE PAC1 ANTAGONISTS” (AMGEN INC., priority 2017, published 2021).
Where a SMILES comes first, the peptide text is derived from it. Bridges are numbered along the chain shown (N, C = ends). Where no end group is shown, it is not given here.

Molecular target: T1, rat PAC1 receptor (Rattus norvegicus, UniProt P32215)
T1 construct: SHSY-5Y (human neuroblastoma cell line) and RG-2 (rat glioma cell line) cells endogenously express human and rat PAC1 receptors, respectively; endogenous in cells; host or cells: RG-2 rat glioma cells
T1 sequence (P32215 20-523): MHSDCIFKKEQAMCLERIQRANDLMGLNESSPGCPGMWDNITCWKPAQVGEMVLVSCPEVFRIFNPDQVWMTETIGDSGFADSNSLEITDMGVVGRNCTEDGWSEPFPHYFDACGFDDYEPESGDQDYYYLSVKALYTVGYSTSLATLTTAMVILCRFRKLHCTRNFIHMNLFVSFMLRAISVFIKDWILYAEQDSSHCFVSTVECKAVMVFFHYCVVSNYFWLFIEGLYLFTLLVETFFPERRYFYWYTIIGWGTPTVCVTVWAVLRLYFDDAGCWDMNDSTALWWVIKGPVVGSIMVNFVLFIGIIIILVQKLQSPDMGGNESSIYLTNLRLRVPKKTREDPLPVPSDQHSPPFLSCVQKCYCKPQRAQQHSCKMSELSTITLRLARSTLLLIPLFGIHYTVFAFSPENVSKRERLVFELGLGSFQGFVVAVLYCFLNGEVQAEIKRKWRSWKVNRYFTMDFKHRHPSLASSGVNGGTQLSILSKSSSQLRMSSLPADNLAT
Assay: LANCE Ultra cAMP accumulation antagonist assay in RG-2 cells;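 note: RG-2 rat glioma cells endogenously expressing PAC1, test peptide preincubated 30 min, then PAC1 agonist added at its EC80 for 15 min, cAMP accumulation read by LANCE Ultra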
Assay type: cell-based

Row | Molecule | IC50 [nM]
1 | CC[C@H](C)[C@H](NC(=O)[C@H](C)NC(=O)[C@H](CCCCN)NC(=O)[C@H](CCCNC(=N)N)NC(=O)[C@H](Cc1ccccc1)NC(=O)[C@H](CCC(N)=O)NC(=O)[C@@H]1CSSC[C@H](N)C(=O)N[C@@H](CC(=O)O)C(=O)N[C@@H](C)C(=O)N[C@@H]([C@@H](C)O)C(=O)N1)C(=O)N[C@@H](CC(=O)O)C(=O)N[C@@H](CC(=O)O)C(=O)N[C@H]1CSSC[C@@H](C(=O)N[C@@H](CCSC)C(=O)N[C@@H](CCCCN)C(=O)N[C@@H](CCC(N)=O)C(=O)N[C@@H](CCCCN)C(=O)N[C@@H](CCCCN)C(=O)N[C@@H](CCCCN)C(=O)N[C@@H](CCC(=O)O)C(=O)N[C@@H](Cc2c[nH]c3ccccc23)C(=O)N[C@@H](CCCCN)C(=O)N[C@@H](C)C(=O)N[C@@H](Cc2c[nH]cn2)C(=O)O)NC(=O)[C@H](C)NC(=O)[C@H](CCCCN)NC(=O)[C@H](Cc2ccccc2)NC(=O)[C@H](CO)NC(=O)[C@H](Cc2c[nH]cn2)NC(=O)[C@H](Cc2ccc(O)cc2)NC(=O)[C@H](C)NC(=O)[C@H](CCC(N)=O)NC(=O)[C@H](CCCNC(=N)N)NC(=O)[C@H](C)NC1=O [compound 451] (H-CDATCQFRKAIDDCARQAYHSFKACMKQKKKEWKAH-OH; disulfide 1-5, 14-25) | 1 to 100
2 | CDATCQFRKAIDDCQKQAHHSNVPGSVFKACMKQKKKEFKAGY (disulfide 1-5, 14-31) [compound 164] | 0.01 to 1
3 | MCDATCQFRKAIDDCQKQAHHSNVPGSVFKACMKQKKKEFKAGHHHHH (disulfide 2-6, 15-32) [compound 199] | 0.01 to 1
4 | CC[C@H](C)[C@H](NC(=O)[C@H](C)NC(=O)[C@H](CCCCN)NC(=O)[C@H](CCCNC(=N)N)NC(=O)[C@H](Cc1ccccc1)NC(=O)[C@H](CCC(N)=O)NC(=O)[C@@H]1CSSC[C@H](N)C(=O)N[C@@H](CC(=O)O)C(=O)N[C@@H](C)C(=O)N[C@@H]([C@@H](C)O)C(=O)N1)C(=O)N[C@@H](CC(=O)O)C(=O)N[C@@H](CC(=O)O)C(=O)N[C@H]1CSSC[C@@H](C(=O)N[C@@H](CCSC)C(=O)N[C@@H](CCCCN)C(=O)N[C@@H](CCC(N)=O)C(=O)N[C@@H](CCCCN)C(=O)N[C@@H](CCCCN)C(=O)N[C@@H](CCCCN)C(=O)N[C@@H](CCC(=O)O)C(=O)N[C@@H](Cc2c[nH]c3ccccc23)C(=O)N[C@@H](CCCCN)C(=O)N[C@@H](C)C(=O)NCC(N)=O)NC(=O)[C@H](C)NC(=O)[C@H](CCCCN)NC(=O)[C@H](Cc2ccccc2)NC(=O)[C@H](C(C)C)NC(=O)[C@H](CO)NC(=O)[C@H](CO)NC(=O)[C@H](Cc2c[nH]cn2)NC(=O)[C@H](CO)NC(=O)[C@H](C)NC(=O)[C@H](CCC(N)=O)NC(=O)[C@H](CCCNC(=N)N)NC(=O)[C@H](C)NC1=O [compound 433] (H-CDATCQFRKAIDDCARQASHSSVFKACMKQKKKEWKAG-NH2; disulfide 1-5, 14-27) | < 0.01
5 | CC[C@H](C)[C@H](NC(=O)[C@H](C)NC(=O)[C@H](CCCCN)NC(=O)[C@H](CCCNC(=N)N)NC(=O)[C@H](Cc1ccccc1)NC(=O)[C@H](CCC(N)=O)NC(=O)[C@@H]1CSSC[C@H](N)C(=O)N[C@@H](CC(=O)O)C(=O)N[C@@H](C)C(=O)N[C@@H]([C@@H](C)O)C(=O)N1)C(=O)N[C@@H](CC(=O)O)C(=O)N[C@@H](CC(=O)O)C(=O)N[C@H]1CSSC[C@@H](C(=O)N[C@@H](CCSC)C(=O)N[C@@H](CCCCN)C(=O)N[C@@H](CCC(N)=O)C(=O)N[C@@H](CCCCN)C(=O)N[C@@H](CCCCN)C(=O)N[C@@H](CCCCN)C(=O)N[C@@H](CCC(=O)O)C(=O)N[C@@H](Cc2c[nH]c3ccccc23)C(=O)N[C@@H](CCCCN)C(=O)N[C@@H](Cc2c[nH]cn2)C(=O)O)NC(=O)[C@H](C)NC(=O)[C@H](CCCCN)NC(=O)[C@H](Cc2ccccc2)NC(=O)[C@H](CO)NC(=O)[C@H](Cc2c[nH]cn2)NC(=O)[C@H](Cc2ccc(O)cc2)NC(=O)[C@H](C)NC(=O)[C@H](CCC(N)=O)NC(=O)[C@H](CCCNC(=N)N)NC(=O)[C@H](C)NC1=O [compound 450] (H-CDATCQFRKAIDDCARQAYHSFKACMKQKKKEWKH-OH; disulfide 1-5, 14-25) | 1 to 100
6 | CC[C@H](C)[C@H](NC(=O)[C@H](C)NC(=O)[C@H](CCCCN)NC(=O)[C@H](CCCNC(=N)N)NC(=O)[C@H](Cc1ccccc1)NC(=O)[C@H](CCC(N)=O)NC(=O)[C@@H]1CSSC[C@H](N)C(=O)N[C@@H](CC(=O)O)C(=O)N[C@@H](C)C(=O)N[C@@H]([C@@H](C)O)C(=O)N1)C(=O)N[C@@H](CC(=O)O)C(=O)N[C@@H](CC(=O)O)C(=O)N[C@H]1CSSC[C@@H](C(=O)N[C@@H](CCSC)C(=O)N[C@@H](CCCCN)C(=O)N[C@@H](CCC(N)=O)C(=O)N[C@@H](CCCCN)C(=O)N[C@@H](CCCCN)C(=O)N[C@@H](CCCCN)C(=O)N[C@@H](CCC(=O)O)C(=O)N[C@@H](Cc2c[nH]c3ccccc23)C(=O)N[C@@H](CCCCN)C(=O)N[C@@H](C)C(=O)NCC(=O)N[C@@H](Cc2c[nH]cn2)C(=O)O)NC(=O)[C@H](C)NC(=O)[C@H](CO)NC(=O)[C@H](Cc2c[nH]cn2)NC(=O)[C@H](Cc2ccc(O)cc2)NC(=O)[C@H](C)NC(=O)[C@H](CCC(N)=O)NC(=O)[C@H](CCCNC(=N)N)NC(=O)[C@H](C)NC1=O [compound 449] (H-CDATCQFRKAIDDCARQAYHSACMKQKKKEWKAGH-OH; disulfide 1-5, 14-23) | 1 to 100
7 | CDATCQFRKAIDDCQKQAHHSNVPGSVFKACMKQKKKEFKAGF (disulfide 1-5, 14-31) [compound 172] | 0.01 to 1
8 | CDATCQFRKAIDDCQKQAHHSNVPGSVFKACMKQKKKEFKAGR (disulfide 1-5, 14-31) [compound 170] | 0.01 to 1
9 | CSCC[C@H](NC(=O)[C@H](CO)NC(=O)[C@H](C)NC(=O)[C@H](CCCCN)NC(=O)[C@H](Cc1ccccc1)NC(=O)[C@@H](NC(=O)[C@H](CO)NC(=O)[C@H](C)NC(=O)[C@@H](NC(=O)[C@H](CC(C)C)NC(=O)CNC(=O)[C@H](CCCCN)NC(=O)[C@H](CCCNC(=N)N)NC(=O)[C@H](Cc1ccc(O)cc1)NC(=O)[C@H](CCC(N)=O)NC(=O)[C@@H]1CSSC[C@H](N)C(=O)N[C@@H](CC(=O)O)C(=O)N[C@@H](C)C(=O)N[C@@H]([C@@H](C)O)C(=O)N1)C(C)C)C(C)C)C(=O)N[C@@H](CCCCN)C(=O)N[C@@H](CCC(N)=O)C(=O)N[C@@H](CCCCN)C(=O)N[C@@H](CCCCN)C(=O)N[C@@H](CCCCN)C(=O)N[C@@H](CCC(=O)O)C(=O)N[C@@H](Cc1ccccc1)C(=O)N[C@@H](CCCCN)C(=O)N[C@@H](C)C(=O)NCC(=O)O [compound 438] (H-CDATCQYRKGLVASVFKASMKQKKKEFKAG-OH; disulfide 1-5) | > 100
10 | CDATCQFRKAIDDCQKQAHHSNVPGSVFKACMKQKKKEFKAN (disulfide 1-5, 14-31) [compound 202] | 0.01 to 1
11 | CSCC[C@H](NC(=O)[C@H](C)NC(=O)[C@@H](NC(=O)[C@H](CCCCN)NC(=O)[C@H](CCCCN)NC(=O)[C@H](Cc1ccc(O)cc1)NC(=O)[C@H](CC(C)C)NC(=O)[C@H](CO)NC(=O)[C@H](C)NC(=O)[C@@H](NC(=O)[C@H](CC(C)C)NC(=O)CNC(=O)[C@H](CCCCN)NC(=O)[C@H](CCCNC(=N)N)NC(=O)[C@H](Cc1ccc(O)cc1)NC(=O)[C@H](CCC(N)=O)NC(=O)[C@@H]1CSSC[C@H](N)C(=O)N[C@@H](CC(=O)O)C(=O)N[C@@H](C)C(=O)N[C@@H]([C@@H](C)O)C(=O)N1)C(C)C)C(C)C)C(=O)N[C@@H](CCC(N)=O)C(=O)N[C@@H](CCCCN)C(=O)N[C@@H](CCCNC(=N)N)C(=O)N[C@@H](Cc1ccc(O)cc1)C(N)=O [compound 437] (H-CDATCQYRKGLVASLYKKVAMQKRY-NH2; disulfide 1-5) | > 100
